Data from patent US8623347B2 (priority 2008, dated 2014).
Read-outs that look alike come from different tables or passages of the source.

Experiments:
[1] = system: LCMV Armstrong strain (Arm53b); experiment: organism not typed; assay type: cell-based; details: for EC50: Vero
LCMV S RNA and NP mRNA = assay type: cell-based
[2] = system: LCMV NP and L proteins (replication and transcription of RNA analog); assay type: cell-based
LCMV = details: cited from earlier work
[3] = read-out: 50% effective concentration (EC50)
[4] = read-out: Activity (EC50 class)

| Compound | EC50 [1, 4] | also measured |
| --- | --- | --- |
| c1ccc2[nH]c(-c3nc4ccccc4[nH]3)nc2c1 [Compound 1, 1H, 1′H-[2,2′]Bibenzoimidazolyl] | < 1 µM | screening result in compound library screen [1]: hit; EC50 [1, 3]: 0.08 µM; synthesis of viral S RNA and NP mRNA relative to untreated controls (LCMV S RNA and NP mRNA): dramatically suppressed; CAT reporter activity [2]: No CAT activity was observed; CC50 (in vitro): > 25 µM |
| Cc1cc2nc(-c3nc4cc(C)c(C)cc4[nH]3)[nH]c2cc1C [Compound 2, 5,6,6′,6′-Tetramethyl-1H, 1′H-[2,2′]bibenzoimidazolyl] | 1 to 10 µM | – |
| Cn1c(-c2nc3ccccc3n2C)nc2ccccc21 [Compound 3, 1,1′-Dimethyl-1H,1′H-[2,2′]bibenzoimidazolyl] | > 25 µM | – |
| O=[N+]([O-])c1ccc2nc(-c3nc4ccc([N+](=O)[O-])cc4[nH]3)[nH]c2c1 [Compound 5, 6,6′-Dinitro-1H,1′H-[2,2′]bibenzoimidazolyl] | > 25 µM | – |
| Fc1cccc2[nH]c(-c3nc4c(F)cccc4[nH]3)nc12 [Compound 6, 4,4′-Difluoro-1H,1′H-[2,2′]bibenzoimidazolyl] | < 1 µM | EC50 [1, 3]: 0.006 µM |
| Fc1ccc2[nH]c(-c3nc4cc(F)ccc4[nH]3)nc2c1 [Compound 7, 5,5′-Difluoro-1H,1′H-[2,2′]bibenzoimidazolyl] | < 1 µM | EC50 [1, 3]: 0.063 µM |
| Clc1ccc2[nH]c(-c3nc4cc(Cl)ccc4[nH]3)nc2c1 [Compound 8, 5,5′-Dichloro-1H,1′H-[2,2′]bibenzoimidazolyl] | 1 to 10 µM | – |
| Brc1ccc2[nH]c(-c3nc4cc(Br)ccc4[nH]3)nc2c1 [Compound 9, 5,5′-Dibromo-1H,1′H-[2,2′]bibenzoimidazolyl] | 1 to 10 µM | – |
| Cc1cccc2[nH]c(-c3nc4c(C)cccc4[nH]3)nc12 [Compound 10, 4,4′-Dimethyl-1H,1′H-[2,2′]bibenzoimidazolyl] | > 25 µM | – |
| Cc1ccc2[nH]c(-c3nc4cc(C)ccc4[nH]3)nc2c1 [Compound 11, 5,5′-Dimethyl-1H,1′H-[2,2′]bibenzoimidazolyl] | > 25 µM | – |
| COc1cccc2[nH]c(-c3nc4c(OC)cccc4[nH]3)nc12 [Compound 12, 4,4′-Dimethoxy-1H,1′H-[2,2′]bibenzoimidazolyl] | > 25 µM | – |
| COc1ccc2[nH]c(-c3nc4cc(OC)ccc4[nH]3)nc2c1 [Compound 13, 5,5′-Dimethoxy-1H,1′H-[2,2′]bibenzoimidazolyl] | 10 to 25 µM | – |
| COC(=O)c1cccc2[nH]c(-c3nc4c(C(=O)OC)cccc4[nH]3)nc12 [Compound 14, 1H,1′H-[2,2′]Bibenzoimidazolyl-4,4′-dicarboxylic acid dimethyl ester] | > 25 µM | – |
| COC(=O)c1ccc2[nH]c(-c3nc4cc(C(=O)OC)ccc4[nH]3)nc2c1 [Compound 15, 1H,1′H-[2,2′]Bibenzoimidazolyl-5,5′-dicarboxylic acid dimethyl ester] | > 25 µM | – |
| c1ccc(-c2cccc3[nH]c(-c4nc5c(-c6ccccc6)cccc5[nH]4)nc23)cc1 [Compound 16, 4,4′-Diphenyl-1H,1′H-[2,2′]bibenzoimidazolyl] | > 25 µM | melting point: 247 to 250 °C (dec.) |
| Fc1ccc2[nH]c(-c3nc4c(F)c(F)ccc4[nH]3)nc2c1F [Compound 17, 4,5,4′,5′-Tetrafluoro-1H,1′H-[2,2′]bibenzoimidazolyl] | < 1 µM | – |
| Fc1cc(F)c2nc(-c3nc4c(F)cc(F)cc4[nH]3)[nH]c2c1 [Compound 18, 4,6,4′,6′-Tetrafluoro-1H,1′H-[2,2′]bibenzoimidazolyl] | < 1 µM | – |
| Fc1cc2nc(-c3nc4cc(F)c(F)cc4[nH]3)[nH]c2cc1F [Compound 19, 5,6,5′,6′-Tetrafluoro-1H,1′H-[2,2′]bibenzoimidazolyl] | < 1 µM | – |
| c1cnc2nc(-c3nc4ncccc4[nH]3)[nH]c2c1 [Compound 20, 1H,1′H-[2,2′]Bi[imidazo[4,5 b]pyridinyl]] | < 1 µM | – |
| c1cc2nc(-c3nc4ccncc4[nH]3)[nH]c2cn1 [Compound 21, 3H,3′H-[2,2′]Bi[imidazo[4,5 c]pyridinyl]] | 10 to 25 µM | melting point: > 300 °C |
| NC(=O)c1ncn([C@@H]2O[C@H](CO)[C@@H](O)[C@H]2O)n1 [ribavirin] | – | antiviral activity against LCMV in vitro (LCMV): limited antiviral activity |
